According to patent US20200254065A1, “LONG-ACTING GLP-2 ANALOGS” (OPKO Biologics Ltd., priority 2019, published 2020):
Square brackets hold non-standard residues; d marks the D form. Peptide text beside a SMILES is read from it. Nle = CCCC[C@H](N)C(=O)O

Assays:
[1] = system: small intestine; test: Intestine weight model in rats; assay type: in vivo, SD rats
Procedure, shortened: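 Rat intestinal growth model: conjugates given s.c. at 0.5–8.0 mg/kg peptide dose, as one injection, on days 1 and 3, or every 6 days; small intestine weighed on day 3, 6, 7, 10, 12 or 14. Histology (H&E, duodenum/jejunum/ileum) gave crypt+villus length. Both reported as % increase over vehicle.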

[2] = Pharmacokinetics of conjugated teduglutide in rats (commercial GLP2 ELISA kit); assay type: in vivo; conditions: SD rats
Method: Plasma samples were collected at pre-dose, 0.5, 2, 4, 8, 12, 24, 48, 72, 96, 168, 216, and 240 hours post dose. The levels of conjugates and free teduglutide were measured using commercial GLP2 ELISA kit.

[3] = molecular target: T1, GLP-2 receptor (Homo sapiens, UniProt O95838); test: GLP-2 receptor Cell Based Assay (CBA); conditions: Table 7
T1 sequence (O95838 1-553): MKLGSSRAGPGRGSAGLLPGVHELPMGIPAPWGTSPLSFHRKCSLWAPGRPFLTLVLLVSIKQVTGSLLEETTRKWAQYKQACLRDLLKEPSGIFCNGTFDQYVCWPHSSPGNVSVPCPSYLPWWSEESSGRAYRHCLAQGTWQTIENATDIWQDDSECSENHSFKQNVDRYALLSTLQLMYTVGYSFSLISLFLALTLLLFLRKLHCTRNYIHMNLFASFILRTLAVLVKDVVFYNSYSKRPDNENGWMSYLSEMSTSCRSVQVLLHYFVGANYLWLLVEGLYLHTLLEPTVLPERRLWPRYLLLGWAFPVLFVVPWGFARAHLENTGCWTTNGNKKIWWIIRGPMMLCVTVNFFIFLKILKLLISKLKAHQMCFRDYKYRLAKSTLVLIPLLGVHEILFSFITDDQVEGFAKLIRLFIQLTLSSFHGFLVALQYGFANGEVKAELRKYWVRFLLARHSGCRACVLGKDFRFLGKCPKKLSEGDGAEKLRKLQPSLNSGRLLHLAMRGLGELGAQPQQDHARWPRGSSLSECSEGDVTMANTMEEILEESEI
Method: Evaluation of in vitro binding affinity of the different peptides was assessed by using Cell Based Assay (CBA) in the presence of escalating doses of the different peptides.

[4] = Pharmacokinetics of modified GLP-2 variants in rats; assay type: in vivo; conditions: rat, serum, peptide dose 15 mg/kg
[5] = Solubility and stability in different buffer systems, concentrations, incubation and freeze-thaw; assay type: physicochemical; conditions: Histidine and NaPi, pH 6.8 to 7.5; 1-10 mg/mL; up to 3 days at 37° C.; up to three freeze-thaw cycles
[6] = Stability of GLP-2 analogues on incubation at 37° C. (appearance, O.D. reading, RP-HPLC); assay type: physicochemical; conditions: following 48 h incubation at 37° C.
Method: The GLP-2 analogues were tested for stability via appearance, O.D. reading (A.280, and A.325) and RP-HPLC (purity, and peak area) following t=0, 1 day, and 48 h incubation at 37° C.

[7] = molecular target: T2, GLP-2 receptor (UniProt O95838 1-553, limits assumed); test: cell-based or functional assay
T2 sequence (looked up): T1 sequence (O95838 1-553)

[8] = molecular target: T2, GLP-2 receptor; test: cell-based or functional assay; remark: listed apart in the source

**Q.** Which results are given for `CC[C@H](C)[C@H](NC(=O)[C@H](Cc1ccccc1)NC(=O)[C@H](CC(=O)O)NC(=O)[C@H](CCCNC(=N)N)NC(=O)[C@H](C)NC(=O)[C@H](C)NC(=O)[C@H](CC(C)C)NC(=O)[C@H](CC(N)=O)NC(=O)[C@H](CC(=O)O)NC(=O)[C@H](CC(C)C)NC(=O)[C@@H](NC(=O)[C@@H](NC(=O)[C@H](CC(N)=O)NC(=O)[C@H](CCSC)NC(=O)[C@H](CCC(=O)O)NC(=O)[C@H](CC(=O)O)NC(=O)[C@H](CO)NC(=O)[C@H](Cc1ccccc1)NC(=O)[C@H](CO)NC(=O)CNC(=O)[C@H](CC(=O)O)NC(=O)CNC(=O)[C@@H](N)Cc1c[nH]cn1)[C@@H](C)O)[C@@H](C)CC)C(=O)N[C@@H](CC(N)=O)C(=O)N[C@@H](Cc1c[nH]c2ccccc12)C(=O)N[C@@H](CC(C)C)C(=O)N[C@H](C(=O)N[C@@H](CCC(N)=O)C(=O)N[C@H](C(=O)N[C@@H](CCCCN)C(=O)N[C@H](C(=O)N[C@H](C(=O)N[C@@H](CC(=O)O)C(=O)O)[C@@H](C)O)[C@@H](C)CC)[C@@H](C)O)[C@@H](C)CC` [GLP-2-Gly2, reference compound]?
**A.** Increase of intestine weight over vehicle (%) ([1]; 2.5 mg/kg daily injections for five days (5 injections), average of five studies): 25%; Average Intestine weight (gr) ([1]; SD rats, SC on days 1 and 3 at 1 mg/kg peptide dose (2 injections), intestine weight on day 6): 5.7 gr; Increase of intestine weight over vehicle (%) ([1]; SD rats, SC on days 1 and 3 at 1 mg/kg peptide dose (2 injections), intestine weight on day 6, listed as GLP-2-Gly2 (Teduglutide), 1 mg/kg): 5%; Increase of intestine weight over vehicle (%) ([1]; SD rats, SC on days 1 and 3 at 1 mg/kg peptide dose (2 injections), intestine weight on day 6, listed as teduglutide, 1 mg/kg): did not increase intestine weight compared to vehicle; Time up to which detectable in plasma ([2]; single injection): up to 4 hours; half-life ([2]; rat, plasma, injected once at 2 mg/kg peptide dose, read-out: Half-Life (t1/2, hr) (converted)): 0.9 h

**Q.** For `CCCC[C@H](NC(=O)[C@H](CCC(=O)O)NC(=O)[C@H](CC(=O)O)NC(=O)[C@H](CO)NC(=O)[C@H](Cc1ccccc1)NC(=O)[C@H](CO)NC(=O)CNC(=O)[C@H](CCC(=O)O)NC(=O)CNC(=O)[C@@H](N)Cc1c[nH]cn1)C(=O)N[C@@H](CC(N)=O)C(=O)N[C@H](C(=O)N[C@H](C(=O)N[C@@H](CC(C)C)C(=O)N[C@@H](CC(=O)O)C(=O)N[C@@H](Cc1ccc(O)cc1)C(=O)N[C@@H](CC(C)C)C(=O)N[C@@H](C)C(=O)N[C@@H](C)C(=O)N[C@@H](CCCNC(=N)N)C(=O)N[C@@H](CC(=O)O)C(=O)N[C@@H](Cc1ccccc1)C(=O)N[C@H](C(=O)N[C@@H](CC(N)=O)C(=O)N[C@@H](Cc1c[nH]c2ccccc12)C(=O)N[C@@H](CC(C)C)C(=O)N[C@H](C(=O)N[C@@H](CCC(N)=O)C(=O)N[C@H](C(=O)N[C@@H](CCCCN)C(=O)N[C@H](C(=O)N[C@H](C(=O)N[C@@H](CC(=O)O)C(=O)O)[C@@H](C)O)[C@@H](C)CC)[C@@H](C)O)[C@@H](C)CC)[C@@H](C)CC)[C@@H](C)CC)[C@@H](C)O` [Variant 7] (H-HGEGSFSDE[Nle]NTILDYLAARDFINWLIQTKITD-OH), which “EC50 Ratio to Teduglutide” value [3] is on record?
**A.** 3.0

**Q.** What about the “Increase of intestine weight over vehicle (%)” value ([1]; modified peptides, two injections on days 1 & 3 at 1 mg/kg, intestine weight on day 6) of the same molecule?
**A.** 12%

**Q.** What about the half-life [4] of the same molecule?
**A.** 5.8 h

**Q.** What about the “CMC perspective, combining purity and solubility” value [5] of the same molecule?
**A.** outperformed the rest of the peptides

**Q.** What about the Solubility via appearance [6] of the same molecule?
**A.** V7: clear

**Q.** What about the “Stability via RP-HPLC main peak” value ([6]; change of main peak) of the same molecule?
**A.** (no change

B1: GLP-2 Variant #4 (peptide)
peptide: H-HGEGSFSDE[Nle]NTILDLLAARDFINWLIQTKITD-NH2
SMILES: CCCC[C@H](NC(=O)[C@H](CCC(=O)O)NC(=O)[C@H](CC(=O)O)NC(=O)[C@H](CO)NC(=O)[C@H](Cc1ccccc1)NC(=O)[C@H](CO)NC(=O)CNC(=O)[C@H](CCC(=O)O)NC(=O)CNC(=O)[C@@H](N)Cc1c[nH]cn1)C(=O)N[C@@H](CC(N)=O)C(=O)N[C@H](C(=O)N[C@H](C(=O)N[C@@H](CC(C)C)C(=O)N[C@@H](CC(=O)O)C(=O)N[C@@H](CC(C)C)C(=O)N[C@@H](CC(C)C)C(=O)N[C@@H](C)C(=O)N[C@@H](C)C(=O)N[C@@H](CCCNC(=N)N)C(=O)N[C@@H](CC(=O)O)C(=O)N[C@@H](Cc1ccccc1)C(=O)N[C@H](C(=O)N[C@@H](CC(N)=O)C(=O)N[C@@H](Cc1c[nH]c2ccccc12)C(=O)N[C@@H](CC(C)C)C(=O)N[C@H](C(=O)N[C@@H](CCC(N)=O)C(=O)N[C@H](C(=O)N[C@@H](CCCCN)C(=O)N[C@H](C(=O)N[C@H](C(=O)N[C@@H](CC(=O)O)C(N)=O)[C@@H](C)O)[C@@H](C)CC)[C@@H](C)O)[C@@H](C)CC)[C@@H](C)CC)[C@@H](C)CC)[C@@H](C)O
**Q.** With B1 as the molecule, how does the “EC50 (nM) Average, GLP2-receptor CBA, 3 independent assays” value [7] read?
**A.** 1 nM

**Q.** And the “EC50 Ratio to Teduglutide, GLP2-receptor CBA” value [7]?
**A.** 1.8 fold

**Q.** What about the “EC50 Ratio to Teduglutide, CBA” value [8] of the same molecule?
**A.** 3.8 fold

**Q.** And the “EC50 [nM], Cell Based Assay (CBA), cells overexpressing the GLP-2 receptor” value [8]?
**A.** 21.6 nM
